Laboratory results reported in PMC9735573 (International Journal of Molecular Sciences, 2022).
Like-named read-outs stand apart in the source and are kept apart here.

Experiments:
[1] = test system: Shiga-like toxin-1 (Stx-1), HeLa cells; assay: cells; type: cell-based, human; settings: for EC50: Homo sapiens, HeLa, read-out: EC50 (Stx-1 intoxication assay)
[2] = Pharmacokinetic study in mice, Retro-2.1 in PLGA–PEG–PLGA hydrogel, 25 mg/kg SC; type: in vivo; settings: for half-life: flip-flop pharmacokinetics, read-out: Thalf (apparent elimination half-life) (converted); for Cmax: mice plasma
[3] = mouse, in vivo, ip, 50 mg/kg
in vivo [4] = settings: female, BALB/c, mouse, ip, 50 mg/kg
Aqueous solubility = type: physicochemical
[5] = Characterisation and stability of Retro-2.1 formulation in PEG–PLA micelles; type: physicochemical
Method: Retro-2.1 was encapsulated in PEG–PLA micelles using the thin-film hydration method, also known as the solvent casting method. This method allowed us to dissolve 4.55 mg/mL of the drug in 26.4 mg/mL of PEG–PLA solution, with an encapsulation yield of 91% and a drug loading of 15%, as determined with HPLC analysis using a calibration curve (Figure S1). […] As previously described, including for Genexol®-PM, these micelles are likely to be spherical. Although the zeta potential of these micelles was not determined in this study, PEG–PLA micelles are widely described to have a neutral to slightly negatively charged surface. […] However, about 35% of the drug load precipitated upon storage at room temperature for 24 h (Figure S3). Every subsequent formulation was therefore stored at −20 °C and thawed at 4 °C before use.
(§1) Dynamic light scattering experiments were performed using a Vasco Flex particle size analyzer equipped with a 450 nm laser. Data were recorded at 20 °C using a refractive index of 1.331 and a solvent viscosity of 0.982 cP. For each sample, 10 acquisitions were realized using a noise limit of 1% and 200 channels with a time interval of 1 µs. All samples were analyzed at a concentration of 10 mg/mL in 4 mL glass vials (Lab File, Wheaton) unless otherwise noted.
In a round-bottom flask, Retro-2.1 (92 mg, 211 µmol) and PEG–PLA (528 mg, 132 µmol) were dissolved in acetone (20 mL). The solvent was removed under reduced pressure to yield a transparent pale-yellow polymeric film, which was rehydrated with saline (15 mL) at 40 °C. Next, 2M NaOH solution in water was added to reach a pH of 7. The volume was adjusted to 20 mL with saline, and the solution was sterile-filtered on a 0.2 µm membrane (Millex®, Duluth, GA, USA) into several 6 mL sterile vials and stored at −20 °C until further use. The Retro-2.1 concentration was determined using HPLC after dilution of the solution in MeOH. Drug loadings and encapsulation efficiencies were calculated using the following formula:(1) encapsulation yield=100*mdrug dissolved/mdrug addeddrug loading=100* mdrug/mdrug+mpolymer
(§2) A sample of the formulation was placed in a 500 µL Eppendorf tube and stored at −20 °C, 4 °C or room temperature (20–25 °C). At each timepoint, the sample was centrifuged (15,000× g, 5 min, 4 °C) and the Retro-2.1 concentration in the supernatant was determined using HPLC.

[6] = Characterisation and stability of Retro-2.1 formulation in PLGA–PEG–PLGA; type: physicochemical
Method: The thin-film rehydration technique was also used to formulate Retro-2.1 in PLGA–PEG–PLGA, using acetone as a dissolution solvent and saline as a rehydration vehicle. As previously described, the polymer was prepared as a 20% (w/v) solution in saline. This solution was able to stably dissolve 3.25 mg/mL of Retro-2.1, with an encapsulation yield of 98% and a drug loading of 1.9%. […] Of note, above 42 °C, the polymer aggregated and separated from water, which is in accordance with other reported polymers with similar structures. The formulation was stable for at least 13 days when stored at 4 °C. However, like the formulation in PEG–PLA, the formulation in PLGA–PEG–PLGA lost 20% of its payload upon storage at 25 °C for 24 h (Figure S10). Subsequent formulations were therefore freshly prepared and stored at 4 °C before use.
as §1
In a round-bottom flask, Retro-2.1 (59.8 mg, 137 µmol) and PLGA–PEG–PLGA (3.00 g, 545 µmol) were dissolved in acetone (15 mL). The solvent was removed under reduced pressure to yield a translucent pale-yellow polymeric film, which was further dried under vacuum for 4 h. The film was rehydrated with saline (15 mL) at room temperature, and 2 M NaOH solution in water was added to reach a pH of 7. The solution was sterile-filtered on a 0.2 µm membrane (Millex®) into 6 mL sterile vials and stored at 4 °C until further use. The Retro-2.1 concentration was determined using HPLC after dilution of the solution in MeCN. Drug loadings and encapsulation efficiencies were calculated, as described before.
as §2

[7] = mouse, in vivo, 2 mg/kg
[8] = mouse
[9] = human
[10] = test system: Shiga-like toxin-1 (Stx-1), HeLa cells; settings: cited from earlier work
in vivo [11] = settings: female, BALB/c, mouse, 2 mg/kg; for half-life: Thalf (elimination half-life)
[12] = SC injection of 25 mg/kg of Retro-2.1 in PLGA–PEG–PLGA, mice
[13] = female, BALB/c, mouse, plasma, SC injection of 25 mg/kg of Retro-2.1 in PLGA–PEG–PLGA, mice
[14] = female, BALB/c, mouse, SC injection of 25 mg/kg of Retro-2.1 in PLGA–PEG–PLGA

CN1c2ccc(F)cc2C(=O)N(c2ccccc2)C1c1ccc(-c2csc(CO)n2)s1 (centres unmarked) [compound 3]
fold less potent than Retro-2.1 [1]: 80 fold
EC50 [1]: 7380 nM
AUCextra [2, 12]: 12%
AUC [2, 13]: 621 ng·h/mL
MRT [2, 13]: 21 h
Tmax [2, 13]: 2 h
half-life [2, 13]: 15 h
Cmax [2, 14]: 0.0393 µg/mL
AUCextra ([3]; female, BALB/c): 0.4%
Thalf ([3]; female, BALB/c): 3.7 h
AUC (in vivo [4]): 6700 ng·h/mL
Cmax (in vivo [4]): 2.76 µg/mL
MRT (in vivo [4]): 3.43 h
Tmax (in vivo [4]): 0.25 h

Cc1nc(-c2ccc(C3N(C)c4ccc(F)cc4C(=O)N3c3ccccc3)s2)cs1 (centres unmarked) [Retro-2.1, 6-fluoro-1-methyl-2-(5-(2-methylthiazol-4-yl)thiophen-2-yl)-3-phenyl-2,3-dihydroquinazolin-4(1H)-1]
EC50 [1]: 90 nM
AUCextra [2, 12]: 17%
VSS [2, 12]: 456 L/kg
AUC [2, 13]: 1420 ng·h/mL
CL/F [2, 13]: 294 mL/min/kg
MRT [2, 13]: 26 h
Tmax [2, 13]: 2 h
half-life [2, 13]: 19 h
Cmax [2, 14]: 0.0752 µg/mL
duration of sustained release ([2]; mice, 25 mg/kg SC in PLGA–PEG–PLGA): at least 48 h
signs of pain or acute toxicity ([2]; mice, 25 mg/kg SC in PLGA–PEG–PLGA, over 48 h): no sign of pain or acute toxicity was observed
solubility (Aqueous solubility): < 1 µg/mL
formulation stable for ([5]; PEG–PLA formulation stored at 4 °C and −20 °C): at least 48 h
drug load precipitated upon storage ([5]; PEG–PLA formulation, room temperature, 24 h): about 35%
drug loading ([5]; PEG–PLA micelles): 15%
encapsulation yield ([5]; PEG–PLA micelles): 91%
micelle mean diameter (DLS) ([5]; Retro-2.1-loaded PEG–PLA micelles): 22.5 nm
drug concentration dissolved in polymer solution ([5]; in 26.4 mg/mL of PEG–PLA solution, thin-film hydration, HPLC): 4550 µg/mL
drug concentration stably dissolved in polymer solution ([6]; 20% (w/v) PLGA–PEG–PLGA in saline): 3250 µg/mL
drug loading ([6]; PLGA–PEG–PLGA): 1.9%
encapsulation yield ([6]; PLGA–PEG–PLGA): 98%
formulation stable for ([6]; PLGA–PEG–PLGA formulation stored at 4 °C): at least 13 days
payload lost upon storage ([6]; PLGA–PEG–PLGA formulation, 25 °C, 24 h): 20%
temperature at which formulation starts solidifying ([6]; PLGA–PEG–PLGA formulation, inverted vial method): 31 °C
micelle mean diameter (DLS) ([6]; Retro-2.1-loaded PLGA–PEG–PLGA micelles): 24.1 nm
AUCextra ([7]; female, BALB/c, ip): 2.1%
Thalf (elimination half-life) ([7]; female, BALB/c, ip): 6.7 h
VSS ([7]; female, BALB/c, ip): 26.3 L/kg
plasmatic concentration 7 h following injection ([7]; female, BALB/c, ip): 21 nM
AUCextra ([7]; female, BALB/c, iv): 2.3%
Thalf (elimination half-life) ([7]; female, BALB/c, iv): 5 h
plasmatic concentration 7 h following injection ([7]; female, BALB/c, iv): 6 nM
signs of pain or acute toxicity [7]: no sign of pain or acute toxicity was observed
AUCextra ([3]; female, BALB/c): 0.1%
Thalf ([3]; female, BALB/c): 3.3 h
VSS ([3]; female, BALB/c): 2.8 L/kg
plasma detectability 24 h after injection [3]: barely detectable
signs of pain or acute toxicity [3]: no apparent sign of pain or acute toxicity was observed
Non-NADPH degradation [8]: < 5%
Clint ([8]; microsomes): 460 μL.min^−1.mg of protein^−1
Non-NADPH degradation [9]: < 5%
Clint ([9]; microsomes): 27.8 μL.min^−1.mg of protein^−1
Metabolic stability at t = 45 min (remaining) ([9]; microsomes, 0.75 h): 27.4%
times more potent than Retro-2 [10]: about 100 times
EC50 ([10]; read-out: EC50 against the Shiga toxin): 102 nM
AUC (in vivo [11]; ip): 322 ng·h/mL
CL/F (in vivo [11]; ip): 103 mL/min/kg
Cmax (in vivo [11]; ip): 0.304 µg/mL
MRT (in vivo [11]; ip): 4.2 h
Tmax (in vivo [11]; ip): 5 min
half-life (in vivo [11]; ip): 5 h
AUC (in vivo [11]; iv): 213 ng·h/mL
Cmax (in vivo [11]; iv): 0.328 µg/mL
MRT (in vivo [11]; iv): 2.9 h
Tmax (in vivo [11]; iv): 5 min
Vd (in vivo [11]; iv): 27.5 L/kg
clearance (in vivo [11]; iv): 157 mL/min/kg
half-life (in vivo [11]; iv): 6.7 h
AUC (in vivo [4]): 18500 ng·h/mL
CL/F (in vivo [4]): 45 mL/min/kg
Cmax (in vivo [4]): 50.6 µg/mL
MRT (in vivo [4]): 1 h
Tmax (in vivo [4]): 0.0833 h
